Where “and” joins values, the source holds several entries; their conditions need not be identical. Identical values can stand only once.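 Protocol summary: plate cells (96-well), add compound at 5 concentrations, incubate 48 h, interpolate endpoints linearly. GI50 marks 50% less growth. TGI marks complete inhibition of growth.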

Among the test systems are SK-MEL-5 melanoma; SNB-75 CNS; UO-31 renal; HS 578T breast; T-47D breast; 786-0 renal; HOP-92 NSCLC; NCI-H460 lung; OVCAR-5 ovarian; DU-145 prostate.
What all share (assay): NCI-60 cell line screen, 48 h

Consider `CCN(CC)CCC(CNc1c2ccc([N+](=O)[O-])cc2nc2cc(OC)c(OC)cc12)c1ccccc1` (stereo not given), for which the GI50 was 445 nM in the experiment on SK-MEL-5 melanoma; 330 nM and 673 nM with SNB-75 CNS; 1100 nM and 956 nM with UO-31 renal; 528 nM and 272 nM with HS 578T breast; 822 nM and 541 nM in the experiment on T-47D breast; 1070 nM and 671 nM with 786-0 renal. Also, the GI50 in the experiment with HOP-92 NSCLC is 258 nM and 80.9 nM; in the experiment on NCI-H460 lung, 118 nM and 52.5 nM; in the experiment on OVCAR-5 ovarian, 487 nM and 755 nM; in the experiment with DU-145 prostate it was 134 nM and 58.2 nM. For the same compound, the TGI with SK-MEL-5 melanoma was 1470 nM; with SNB-75 CNS, 1620 nM and 2150 nM; in the experiment with UO-31 renal it was 2430 nM and 2600 nM; with HS 578T breast it was 2880 nM and 1200 nM; in the experiment with T-47D breast, 2970 nM and 2610 nM; with 786-0 renal, 2540 nM and 1930 nM. Besides, the TGI was 850 nM and 404 nM with HOP-92 NSCLC; 1050 nM and 631 nM with NCI-H460 lung; 1930 nM and 2300 nM in the experiment with OVCAR-5 ovarian; 1040 nM and 301 nM in the experiment with DU-145 prostate.

On to `Clc1ccc(N/N=C/c2ccccn2)nc1`, for which the GI50 in the experiment with SK-MEL-5 melanoma is 423 nM; in the experiment on SNB-75 CNS, 1740 nM; with UO-31 renal it was 303 nM; with HS 578T breast, 3390 nM; with T-47D breast it was 349 nM; with 786-0 renal it was 339 nM. Moreover, the GI50 in the experiment on HOP-92 NSCLC is 608 nM; in the experiment with NCI-H460 lung it was 379 nM; in the experiment with OVCAR-5 ovarian, 433 nM; in the experiment with DU-145 prostate it was 445 nM. The TGI with SK-MEL-5 melanoma is 2590 nM; in the experiment on SNB-75 CNS, more than 45800 nM; in the experiment with UO-31 renal, 1570 nM; in the experiment on HS 578T breast it was more than 100000 nM; in the experiment on T-47D breast, more than 63500 nM; in the experiment with 786-0 renal, more than 100000 nM. Moreover, the TGI is more than 100000 nM in the experiment on HOP-92 NSCLC, more than 42700 nM with NCI-H460 lung, more than 94300 nM with OVCAR-5 ovarian and more than 100000 nM in the experiment with DU-145 prostate.

For `Cc1nc2ccc(N=Nc3c(O)ccc4ccccc34)cc2[nH]1`, the TGI with SK-MEL-5 melanoma is more than 65100 nM; in the experiment on SNB-75 CNS, more than 100000 nM; in the experiment on UO-31 renal it was more than 84800 nM; with HS 578T breast, 61900 nM; with T-47D breast, 41000 nM; in the experiment on 786-0 renal, 54400 nM. Moreover, the TGI was 42800 nM in the experiment on HOP-92 NSCLC, more than 87700 nM with NCI-H460 lung, more than 100000 nM in the experiment on OVCAR-5 ovarian and more than 100000 nM in the experiment on DU-145 prostate.

In the case of `O=[N+]([O-])c1ccccc1S(=O)(=O)c1ccccc1[N+](=O)[O-]`, the TGI in the experiment on SK-MEL-5 melanoma is more than 56200 nM; in the experiment with SNB-75 CNS, 43100 nM; with UO-31 renal it was more than 100000 nM; with HS 578T breast it was more than 100000 nM; in the experiment with T-47D breast it was more than 100000 nM; with 786-0 renal, more than 100000 nM. Also, the TGI with HOP-92 NSCLC is 91400 nM; with NCI-H460 lung, more than 100000 nM; in the experiment on OVCAR-5 ovarian, more than 100000 nM; with DU-145 prostate it was more than 100000 nM.

Consider `Cc1cc(N2CCOCC2)nc(N(CCNc2ccnc3cc(Cl)ccc23)Cc2ccco2)n1`, for which the GI50 in the experiment with SK-MEL-5 melanoma is 3100 nM; in the experiment on SNB-75 CNS, 2590 nM; in the experiment with UO-31 renal it was 1990 nM; in the experiment with HS 578T breast, 2640 nM; with T-47D breast it was 2130 nM; in the experiment on 786-0 renal it was 2140 nM. Moreover, the GI50 was 2100 nM in the experiment with HOP-92 NSCLC, 3720 nM in the experiment on NCI-H460 lung, 9400 nM with OVCAR-5 ovarian and 6850 nM with DU-145 prostate. Moreover, the TGI with SK-MEL-5 melanoma was determined as 12100 nM; in the experiment on SNB-75 CNS, 7770 nM; with UO-31 renal, 6970 nM; in the experiment with HS 578T breast, 10100 nM; in the experiment on T-47D breast, 4920 nM; in the experiment on 786-0 renal it was 4910 nM. The TGI with HOP-92 NSCLC came to 8190 nM; in the experiment with NCI-H460 lung it was 23900 nM; in the experiment on OVCAR-5 ovarian it was 44600 nM; in the experiment on DU-145 prostate, 26500 nM.

As to `COc1ccc(Nc2nc(NCc3ccccc3)c3ccccc3n2)cc1`, the GI50 in the experiment on SK-MEL-5 melanoma is 1680 nM; in the experiment on SNB-75 CNS, 7980 nM; with UO-31 renal, 5090 nM; with HS 578T breast, 10900 nM; in the experiment on T-47D breast it was 1740 nM; with 786-0 renal, 6310 nM. Moreover, the GI50 is 2590 nM with HOP-92 NSCLC, 3340 nM in the experiment with NCI-H460 lung, 10100 nM in the experiment on OVCAR-5 ovarian and 8750 nM with DU-145 prostate. Further, the TGI came to 3140 nM in the experiment with SK-MEL-5 melanoma; 22400 nM with SNB-75 CNS; 19800 nM in the experiment with UO-31 renal; 30500 nM in the experiment on HS 578T breast; 3400 nM with T-47D breast; 20900 nM in the experiment on 786-0 renal. Besides, the TGI with HOP-92 NSCLC stood at 12600 nM; with NCI-H460 lung, 12600 nM; with OVCAR-5 ovarian, 28000 nM; in the experiment with DU-145 prostate, 21900 nM.

Regarding `Nc1cccc(-c2nc3sccn3c2-c2ccnc(NCCCNS(=O)(=O)c3ccc(C(F)(F)F)cc3)n2)c1`, the GI50 in the experiment on SK-MEL-5 melanoma is 2200 nM; with SNB-75 CNS, 1830 nM; in the experiment with UO-31 renal it was 3200 nM; with HS 578T breast it was 4050 nM; with T-47D breast, 1370 nM; in the experiment on 786-0 renal, 5740 nM. For the same compound, the GI50 in the experiment with HOP-92 NSCLC was 11400 nM; in the experiment on NCI-H460 lung, 4580 nM; in the experiment with OVCAR-5 ovarian, 13700 nM; in the experiment with DU-145 prostate, 4260 nM. For the same compound, the TGI in the experiment on SK-MEL-5 melanoma is 5200 nM; in the experiment with SNB-75 CNS it was 23100 nM; with UO-31 renal, 27500 nM; in the experiment on HS 578T breast, 61600 nM; with T-47D breast it was 5180 nM; in the experiment with 786-0 renal it was more than 100000 nM. Further, the TGI in the experiment on HOP-92 NSCLC was 83500 nM; with NCI-H460 lung it was 58600 nM; in the experiment on OVCAR-5 ovarian, 95100 nM; in the experiment on DU-145 prostate it was 35600 nM.

Regarding `CCNC(=O)Nc1ccc(-c2nc3c(c(N4CCOC[C@@H]4C)n2)CCN(C2COC2)C3)cc1`, the GI50 in the experiment with SK-MEL-5 melanoma is 317 nM and 331 nM; in the experiment with SNB-75 CNS, 104 nM and 73.7 nM; with UO-31 renal it was 101 nM and 80.1 nM; in the experiment with HS 578T breast, 155 nM and 146 nM; in the experiment on T-47D breast it was 49.8 nM and 31.6 nM; with 786-0 renal, 386 nM and 278 nM. Besides, the GI50 is 43 nM and 30.7 nM with HOP-92 NSCLC; 236 nM and 130 nM in the experiment with NCI-H460 lung; 302 nM and 384 nM in the experiment with OVCAR-5 ovarian; 562 nM and 435 nM in the experiment on DU-145 prostate. Also, the TGI is 8520 nM and 2560 nM with SK-MEL-5 melanoma; 1130 nM and 1100 nM in the experiment on SNB-75 CNS; 2390 nM and 1450 nM in the experiment with UO-31 renal; 804 nM and 930 nM in the experiment with HS 578T breast; 591 nM and 381 nM in the experiment with T-47D breast; 29100 nM and > 10000 nM in the experiment on 786-0 renal. Moreover, the TGI in the experiment with HOP-92 NSCLC was 681 nM and 493 nM; with NCI-H460 lung it was more than 100000 nM; with OVCAR-5 ovarian, more than 37100 nM; in the experiment with DU-145 prostate, more than 100000 nM.
